Assay results reported in patent US12076417B2, “Plasma-derived nanoparticles” (NANOMEDX, INC., priority 2016, dated 2024).

Tests used:
[1] = Binding kinetics of ICG to nanoP^3; format: physicochemical
Description: The binding kinetics associated with the simple nanoP^3 conjugation process can be assessed by measuring the amount of bound cargo at different incubation time points and temperatures. NanoP^3 material was conjugated with the precise amount of indocyanine green (ICG) which was calculated in Example 5 to saturate the nanoparticle surface at a monolayer, i.e. 1.9×10^6 ICG molecules on a single nanoP^3 particle (99 nm radius). […] For this experiment, the plasma parameters were set at Q=3, 10 and 3 sccm for acetylene, nitrogen and argon, 150 mTorr and 50 W. The incubation of nanoP^3 (10^9 nanoP^3/mL) with ICG was performed at room temperature, in RT-PCR grade water (pH=7) for 1 hour.

mice = experiment: IVIS fluorescence imaging of ICG after tail vein injection; conditions: mouse, in vivo
Description: In another animal experiment, mice were divided randomly into 3 groups: • 1) nanoP^3 only; • 2) nanoP^3 and ICG; or • 3) ICG only.
Following closure of the incision with silk sutures, each mouse was administered with 100 μL of the corresponding sample groups via tail vein injection: nanoP^3 control (9×10^9 nanoP^3), nanoP^3-ICG (9×10^9 nanoP^3 with 2.5 μg of ICG/10^9 nanoP^3) or ICG control (22.5 μg). Non-invasive imaging using IVIS was carried out for detection of fluorescence at Ex/Em=780 nm/820 nm.

[2] = test system: Horseradish Peroxidase (HRP); experiment: Activity of conjugated HRP detected with ABTS at 405 nm; format: biochemical; conditions: 0.5 μg/mL HRP, 4 hours incubation, after washing off free HRP
Description: NanoP^3 was collected from the nanoparticle collector under sterile conditions in a tissue culture hood with RT-PCR Grade water. The concentration of nanoparticles was measured by NanoSight LM10. Nanoparticles were then conjugated to desired antibodies (Goat anti-Rat IgG-Cy5; abcam ab6565; and Goat anti-Rabbit IgG; abcam ab150089 at 1:100 dilution), drugs (Doxorubicin: Sigma-Aldrich, D1515 at 100 μg/ml and Paclitaxel-Oregon Green 488, Invitrogen P22310 at 5 μg/mL) or proteins (Peroxidase from Horseradish; Sigma-Aldrich HRP; P6782 at 0.5 μg/mL) for up to 16 hours at 4° C., protected from light. Conjugation of HRP to 150 nm gold nanoparticles was performed (Cytodiagnostics; G-150) in an identical fashion. The samples were gently agitated using Bio RS-24 mini-rotator. […] The fluorescent intensity was measured using a plate reader, the Ex/Em were set in accordance to the fluorescent dye tag on each antibody or drug. […] For detection of HRP, conjugated nanoparticles and respective controls were incubated with ABTS (Sigma-Aldrich; A1888) and hydrogen peroxide (Merck; 386790) until colour was visible and measured at 405 nm. […]
Nanoparticles of nanoP^3 and gold (GNPs) were conjugated with horseradish peroxidase (HRP). These were detected by incubation with 2,2′-azino-bis(3-ethylbenzothiazoline-6-sulphonic acid) (ABTS). […]

Row | Compound | time to surface saturation ([1]; both 24° C. and 4° C.) | total cargo immobilized on nanoP^3 within first 30 seconds ([1]; incubation at 4° C.) [%] | total cargo immobilized on nanoP^3 within first 30 seconds ([1]; incubation at 24° C.) [%] | fluorescence by IVIS at Ex/Em=780 nm/820 nm (mice) | HRP activity (absorbance at 405 nm with ABTS) [2]
1 | CC1(C)C(/C=C/C=C/C=C/C=C2\N(CCCCS(=O)(=O)[O-])c3ccc4ccccc4c3C2(C)C)=[N+](CCCCS(=O)(=O)[O-])c2ccc3ccccc3c21.[Na+] [ICG, sodium 4-[2-[(1E,3E,5E,7Z)-7-[1,1-dimethyl-3-(4-sulfonatobutyl)benzo[e]indol-2ylidene]hepta-1,3,5-trienyl]-1,1-dimethylbenzo[e]indol-3-ium-3-yl]butane-1-sulfonate] | less than 5 minutes | 60 | 90 | absent | 
2 | Horseradish Peroxidase [HRP alone] |  |  |  |  | below background levels of activity
